Source: ChEMBL document CHEMBL4339185 (Eur J Med Chem, 2019)
≈ marks a conversion by molar mass, not a printed value.

How the values were obtained:
Staphylococcus aureus [1] = experiment: Antimicrobial activity against methicillin-resistant Staphylococcus aureus incubated for 18 hrs by serial microdilution method; assay type: functional
Staphylococcus aureus [2] = experiment: Antimicrobial activity against Staphylococcus aureus ATCC 6538 incubated for 18 hrs by serial microdilution method; assay type: functional; conditions: ATCC 6538, 18 h
Escherichia coli = experiment: Antimicrobial activity against Escherichia coli ATCC 25922 incubated for 18 hrs by serial microdilution method; assay type: functional; conditions: ATCC 25922, 18 h
Enterococcus faecalis = experiment: Antimicrobial activity against Enterococcus faecalis ATCC 29212 incubated for 18 hrs by serial microdilution method; assay type: functional; conditions: ATCC 29212, 18 h
[3] = tested on: Staphylococcus epidermidis; experiment: Antimicrobial activity against Staphylococcus epidermidis ATCC 12228 incubated for 18 hrs by serial microdilution method; assay type: functional; conditions: ATCC 12228, 18 h
Staphylococcus aureus [4] = experiment: Antimicrobial activity against MLSB-resistant Staphylococcus aureus incubated for 18 hrs by serial microdilution method; assay type: functional
[5] = Lipophilicity, log P of the compound in octanol and water incubated for 1 h under shaking condition; assay type: physicochemical
[6] = tested on: Staphylococcus epidermidis; experiment: Antimicrobial activity against Staphylococcus epidermidis ATCC 49134 incubated for 18 hrs by serial microdilution method; assay type: functional; conditions: ATCC 49134, 18 h
[7] = Solubility of the compound in water at pH 7 by UV-vis spectrophotometric analysis; assay type: physicochemical

| Structure (SMILES) | MIC (Staphylococcus aureus [1]) [µg/mL] | MIC (Staphylococcus aureus [2]) [µg/mL] | MIC (Escherichia coli) [µg/mL] | MIC (Enterococcus faecalis) [µg/mL] | MIC [3] [µg/mL] | MIC (Staphylococcus aureus [4]) [µg/mL] | logP at 1 h [5] | MIC [6] [µg/mL] | solubility [7] [µg/mL] |
| --- | --- | --- | --- | --- | --- | --- | --- | --- | --- |
| CO[C@H]1/C=C/O[C@@]2(C)Oc3c(C)c(O)c4c(O)c(c(/C=N/N5CCOCC5)c(O)c4c3C2=O)NC(=O)/C(C)=C\C=C\[C@H](C)[C@H](O)[C@@H](C)[C@@H](O)[C@@H](C)[C@H](OC(C)=O)[C@@H]1C | 0.5 (≈ 0.617 µM) | 1 (≈ 1.23 µM) | > 8 | > 8 | 0.25 (≈ 0.309 µM) | 1 (≈ 1.23 µM) | 2.79 | 0.25 (≈ 0.309 µM) | < 50 |
| CO[C@H]1/C=C/O[C@@]2(C)Oc3c(C)c(O)c4c(O)c(c(/C=N/Nc5ccccc5)c(O)c4c3C2=O)NC(=O)/C(C)=C\C=C\[C@H](C)[C@H](O)[C@@H](C)[C@@H](O)[C@@H](C)[C@H](OC(C)=O)[C@@H]1C | 0.5 (≈ 0.613 µM) | 0.5 (≈ 0.613 µM) | > 8 | > 8 | 0.5 (≈ 0.613 µM) | 1 (≈ 1.23 µM) | 2.75 | 0.25 (≈ 0.306 µM) | < 50 |
| CO[C@H]1/C=C/O[C@@]2(C)Oc3c(C)c(O)c4c(O)c(c5c(nc6cc(C)ccn65)c4c3C2=O)NC(=O)/C(C)=C\C=C\[C@H](C)[C@H](O)[C@@H](C)[C@@H](O)[C@@H](C)[C@H](OC(C)=O)[C@@H]1C [RIFAXIMIN] | 0.0625 (≈ 0.0795 µM) | 0.0625 (≈ 0.0795 µM) | > 8 | 8 (≈ 10.2 µM) | 0.0312 (≈ 0.0398 µM) | 0.125 (≈ 0.159 µM) |  | 0.0312 (≈ 0.0398 µM) |  |
| CO[C@H]1/C=C/O[C@@]2(C)Oc3c(C)c(O)c4c(O)c(c(C=O)c(O)c4c3C2=O)NC(=O)/C(C)=C\C=C\[C@H](C)[C@H](O)[C@@H](C)[C@@H](O)[C@@H](C)[C@H](OC(C)=O)[C@@H]1C | 4 (≈ 5.51 µM) | 2 (≈ 2.76 µM) | > 8 | > 8 | 2 (≈ 2.76 µM) | 2 (≈ 2.76 µM) |  | 2 (≈ 2.76 µM) |  |
| CO[C@H]1/C=C/O[C@@]2(C)Oc3c(C)c(O)c4c(O)c(c(CN5CCN(c6ncccn6)CC5)c(O)c4c3C2=O)NC(=O)/C(C)=C\C=C\[C@H](C)[C@H](O)[C@@H](C)[C@@H](O)[C@@H](C)[C@H](OC(C)=O)[C@@H]1C | 1 (≈ 1.14 µM) | 1 (≈ 1.14 µM) | > 8 | > 8 | 0.25 (≈ 0.286 µM) | 2 (≈ 2.29 µM) | 2.02 | 0.25 (≈ 0.286 µM) | 50 (≈ 57.2 µM) |
| CO[C@H]1/C=C/O[C@@]2(C)Oc3c(C)c(O)c4c(O)c(c(/C=N/NC5CCCCC5)c(O)c4c3C2=O)NC(=O)/C(C)=C\C=C\[C@H](C)[C@H](O)[C@@H](C)[C@@H](O)[C@@H](C)[C@H](OC(C)=O)[C@@H]1C | 0.5 (≈ 0.608 µM) | 0.5 (≈ 0.608 µM) | > 8 | 1 (≈ 1.22 µM) | 0.25 (≈ 0.304 µM) | 0.5 (≈ 0.608 µM) | 2.1 | 0.25 (≈ 0.304 µM) | < 50 |
| CO[C@H]1/C=C/O[C@@]2(C)Oc3c(C)c(O)c4c(O)c(c(CN5CCC(NS(C)(=O)=O)CC5)c(O)c4c3C2=O)NC(=O)/C(C)=C\C=C\[C@H](C)[C@H](O)[C@@H](C)[C@@H](O)[C@@H](C)[C@H](OC(C)=O)[C@@H]1C | 2 (≈ 2.25 µM) | 4 (≈ 4.5 µM) | > 8 | > 8 | 0.5 (≈ 0.563 µM) | 2 (≈ 2.25 µM) | 0.31 | 0.5 (≈ 0.563 µM) | 36400 (≈ 41000 µM) |
| CO[C@H]1/C=C/O[C@@]2(C)Oc3c(C)c(O)c4c(O)c(c(/C=N/NCc5ccccc5)c(O)c4c3C2=O)NC(=O)/C(C)=C\C=C\[C@H](C)[C@H](O)[C@@H](C)[C@@H](O)[C@@H](C)[C@H](OC(C)=O)[C@@H]1C | 1 (≈ 1.2 µM) | 0.5 (≈ 0.602 µM) | > 8 | > 8 | 0.25 (≈ 0.301 µM) | 0.5 (≈ 0.602 µM) | 2.34 | 0.25 (≈ 0.301 µM) | < 50 |
| CO[C@H]1/C=C/O[C@@]2(C)Oc3c(C)c(O)c4c(O)c(c(/C=N/N5CCN(C)CC5)c(O)c4c3C2=O)NC(=O)/C(C)=C\C=C\[C@H](C)[C@H](O)[C@@H](C)[C@@H](O)[C@@H](C)[C@H](OC(C)=O)[C@@H]1C [RIFAMPIN] | 0.0156 (≈ 0.019 µM) | 0.0156 (≈ 0.019 µM) | > 8 | 8 (≈ 9.72 µM) | 0.0156 (≈ 0.019 µM) | 0.0312 (≈ 0.038 µM) |  | 0.0156 (≈ 0.019 µM) |  |
| CO[C@H]1/C=C/O[C@@]2(C)Oc3c(C)c(O)c4c(O)c(c(/C=N/N5CCCC5)c(O)c4c3C2=O)NC(=O)/C(C)=C\C=C\[C@H](C)[C@H](O)[C@@H](C)[C@@H](O)[C@@H](C)[C@H](OC(C)=O)[C@@H]1C | 0.25 (≈ 0.315 µM) | 0.25 (≈ 0.315 µM) | > 8 | 4 (≈ 5.04 µM) | 0.25 (≈ 0.315 µM) | 0.5 (≈ 0.63 µM) | 3.13 | 0.25 (≈ 0.315 µM) | < 300 |
| CO[C@H]1/C=C/O[C@@]2(C)Oc3c(C)c(O)c4c(O)c(c(CN5CCC(N(C)C)CC5)c(O)c4c3C2=O)NC(=O)/C(C)=C\C=C\[C@H](C)[C@H](O)[C@@H](C)[C@@H](O)[C@@H](C)[C@H](OC(C)=O)[C@@H]1C | 0.25 (≈ 0.298 µM) | 0.25 (≈ 0.298 µM) | > 8 | 8 (≈ 9.55 µM) | 0.125 (≈ 0.149 µM) | 0.125 (≈ 0.149 µM) | 1.23 | 0.125 (≈ 0.149 µM) | 1870 (≈ 2230 µM) |
| CO[C@H]1/C=C/O[C@@]2(C)Oc3c(C)c(O)c4c(O)c(c(CNC5CCCC(C(N)=O)C5)c(O)c4c3C2=O)NC(=O)/C(C)=C\C=C\[C@H](C)[C@H](O)[C@@H](C)[C@@H](O)[C@@H](C)[C@H](OC(C)=O)[C@@H]1C (stereo partly drawn) | 0.5 (≈ 0.587 µM) | 0.5 (≈ 0.587 µM) | > 8 | > 8 | 0.25 (≈ 0.293 µM) | 0.25 (≈ 0.293 µM) | 1.33 | 0.25 (≈ 0.293 µM) | 150 (≈ 176 µM) |
| CO[C@H]1/C=C/O[C@@]2(C)Oc3c(C)c(O)c4c(O)c(c(CN5CCN(C(c6ccc(F)cc6)c6ccc(F)cc6)CC5)c(O)c4c3C2=O)NC(=O)/C(C)=C\C=C\[C@H](C)[C@H](O)[C@@H](C)[C@@H](O)[C@@H](C)[C@H](OC(C)=O)[C@@H]1C | 4 (≈ 4.01 µM) | 4 (≈ 4.01 µM) | > 8 | > 8 | 4 (≈ 4.01 µM) | 8 (≈ 8.01 µM) | 2.34 | 2 (≈ 2 µM) | < 50 |
| CO[C@H]1/C=C/O[C@@]2(C)Oc3c(C)c(O)c4c(O)c(c(CN5CCN(C)C6(CCN(C)CC6)C5)c(O)c4c3C2=O)NC(=O)/C(C)=C\C=C\[C@H](C)[C@H](O)[C@@H](C)[C@@H](O)[C@@H](C)[C@H](OC(C)=O)[C@@H]1C | 0.125 (≈ 0.14 µM) | 0.25 (≈ 0.28 µM) | > 8 | 2 (≈ 2.24 µM) | 0.0625 (≈ 0.07 µM) | 0.125 (≈ 0.14 µM) | 0.72 | 0.0625 (≈ 0.07 µM) | 1830 (≈ 2050 µM) |
| CO[C@H]1/C=C/O[C@@]2(C)Oc3c(C)c(O)c4c(O)c(c(CNC5CCN(C(=O)OC(C)(C)C)CC5)c(O)c4c3C2=O)NC(=O)/C(C)=C\C=C\[C@H](C)[C@H](O)[C@@H](C)[C@@H](O)[C@@H](C)[C@H](OC(C)=O)[C@@H]1C | 0.5 (≈ 0.549 µM) | 0.5 (≈ 0.549 µM) | > 8 | 4 (≈ 4.4 µM) | 0.25 (≈ 0.275 µM) | 0.5 (≈ 0.549 µM) | 2.8 | 0.25 (≈ 0.275 µM) | < 50 |
| CO[C@H]1/C=C/O[C@@]2(C)Oc3c(C)c(O)c4c(O)c(c(CN5CCN(c6ccccn6)CC5)c(O)c4c3C2=O)NC(=O)/C(C)=C\C=C\[C@H](C)[C@H](O)[C@@H](C)[C@@H](O)[C@@H](C)[C@H](OC(C)=O)[C@@H]1C | 1 (≈ 1.15 µM) | 2 (≈ 2.29 µM) | > 8 | > 8 | 0.25 (≈ 0.286 µM) | 0.5 (≈ 0.573 µM) | 1.99 | 0.25 (≈ 0.286 µM) | < 50 |
| CO[C@H]1/C=C/O[C@@]2(C)Oc3c(C)c(O)c4c(O)c(c(/C=N/N5CCCCC5)c(O)c4c3C2=O)NC(=O)/C(C)=C\C=C\[C@H](C)[C@H](O)[C@@H](C)[C@@H](O)[C@@H](C)[C@H](OC(C)=O)[C@@H]1C | 0.0156 (≈ 0.0193 µM) | 0.0156 (≈ 0.0193 µM) | > 8 | 0.5 (≈ 0.619 µM) | 0.0156 (≈ 0.0193 µM) | 0.5 (≈ 0.619 µM) | 3.27 | 0.0312 (≈ 0.0387 µM) | < 300 |
| CO[C@H]1/C=C/O[C@@]2(C)Oc3c(C)c(O)c4c(O)c(c(CN5CCC6(CC5)NCCc5ccccc56)c(O)c4c3C2=O)NC(=O)/C(C)=C\C=C\[C@H](C)[C@H](O)[C@@H](C)[C@@H](O)[C@@H](C)[C@H](OC(C)=O)[C@@H]1C | 8 (≈ 8.77 µM) | 8 (≈ 8.77 µM) | > 8 | 4 (≈ 4.39 µM) | 2 (≈ 2.19 µM) | 8 (≈ 8.77 µM) | 2.09 | 2 (≈ 2.19 µM) | < 50 |
| CO[C@H]1/C=C/O[C@@]2(C)Oc3c(C)c(O)c4c(O)c(c(CNC5CCN(CC(=O)O)CC5)c(O)c4c3C2=O)NC(=O)/C(C)=C\C=C\[C@H](C)[C@H](O)[C@@H](C)[C@@H](O)[C@@H](C)[C@H](OC(C)=O)[C@@H]1C | 0.25 (≈ 0.288 µM) | 0.25 (≈ 0.288 µM) | > 8 | > 8 | 0.0625 (≈ 0.072 µM) | 0.5 (≈ 0.576 µM) | -1.5 | 0.0625 (≈ 0.072 µM) | > 100000 |
| CO[C@H]1/C=C/O[C@@]2(C)Oc3c(C)c(O)c4c(O)c(c(CN5CCN(Cc6c(C)cc(C)cc6C)CC5)c(O)c4c3C2=O)NC(=O)/C(C)=C\C=C\[C@H](C)[C@H](O)[C@@H](C)[C@@H](O)[C@@H](C)[C@H](OC(C)=O)[C@@H]1C | 2 (≈ 2.15 µM) | 4 (≈ 4.31 µM) | > 8 | > 8 | 0.5 (≈ 0.539 µM) | 2 (≈ 2.15 µM) | 1.82 | 1 (≈ 1.08 µM) | < 300 |
| CO[C@H]1/C=C/O[C@@]2(C)Oc3c(C)c(O)c4c(O)c(c(CNCC(=O)N5CCCCC5)c(O)c4c3C2=O)NC(=O)/C(C)=C\C=C\[C@H](C)[C@H](O)[C@@H](C)[C@@H](O)[C@@H](C)[C@H](OC(C)=O)[C@@H]1C | 1 (≈ 1.17 µM) | 1 (≈ 1.17 µM) | > 8 | > 8 | 0.5 (≈ 0.587 µM) | 1 (≈ 1.17 µM) | 1.35 | 0.25 (≈ 0.293 µM) | 120 (≈ 141 µM) |
